Measured values: the supplement of paper PMC5579334
± gives the standard deviation of the averaged measurements.

Legend:
ST8814 [1] = experiment: % inhibition of CellTiter-Glo viability at highest tested concentration (72 h), relative to DMSO and benzethonium chloride controls; higher = more inhibition
Summary of the method: (§1)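 Viability was scored by CellTiter-Glo ATP luminescence, scaled from vehicle to positive-control wells, with duplicates averaged where present. The cells, MPNST lines and primary human Schwann cells at 750–1000 per well, sat 72 h at 37 °C, 5% CO2, in 384-well plates preprinted with each compound at five concentrations in 10-fold steps. Four-parameter logistic fits were run on the data. These fits give drug sensitivity score and relative IC50 censored at the top concentration, and percent inhibition is reported at the top concentration.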

STS26T [2] = experiment: as above
Summary of the method: as §1

[3] = system: HSC1 (primary human Schwann cells); experiment: as above
Summary of the method: as §1

HS-PSS [4] = experiment: as above
Summary of the method: as §1

S462 [5] = experiment: as above
Summary of the method: as §1

S1507-2 [6] = experiment: as above
Summary of the method: as §1

YST-1 [7] = experiment: as above
Summary of the method: as §1

HS-Sch-2 [8] = experiment: as above
Summary of the method: as §1

[9] = system: HSC2 (primary human Schwann cells); experiment: as above
Summary of the method: as §1

ST8814 [10] = experiment: drug sensitivity score (DSS, CellTiter-Glo viability, 72 h) (DSS (dimensionless)); higher = more sensitive; extreme values may be limits of the assay
Summary of the method: as §1

STS26T [11] = experiment: as above
Summary of the method: as §1

[12] = system: HSC1 (primary human Schwann cells); experiment: as above
Summary of the method: as §1

HS-PSS [13] = experiment: as above
Summary of the method: as §1

S462 [14] = experiment: as above
Summary of the method: as §1

S1507-2 [15] = experiment: as above
Summary of the method: as §1

YST-1 [16] = experiment: as above
Summary of the method: as §1

HS-Sch-2 [17] = experiment: as above
Summary of the method: as §1

[18] = system: HSC2 (primary human Schwann cells); experiment: as above
Summary of the method: as §1

ST8814 [19] = experiment: drug sensitivity score (DSS, CellTox-Green cytotoxicity, 72 h) (DSS (dimensionless)); higher = more cytotoxic; extreme values may be limits of the assay
Summary of the method: (§2)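 MPNST cell lines and primary human Schwann cells were incubated 72 h at 37 °C in 384-well plates holding five 10-fold compound dilutions. CellTox-Green was added before seeding at a final 1:1000 dilution and reported fluorescence from DNA released by disrupted cells. Signals were scaled to vehicle and positive-control wells, and cultures failing plate quality control were dropped. Drug sensitivity score and relative IC50 come from four-parameter logistic fits, with IC50 censored at the top concentration.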

STS26T [20] = experiment: as above
Summary of the method: as §2

[21] = system: HSC1 (primary human Schwann cells); experiment: as above
Summary of the method: as §2

HS-PSS [22] = experiment: as above
Summary of the method: as §2

S1507-2 [23] = experiment: as above
Summary of the method: as §2

[24] = system: HSC2 (primary human Schwann cells); experiment: as above
Summary of the method: as §2

Row | SMILES | % inhibition (ST8814 [1]) [%] | % inhibition (STS26T [2]) [%] | % inhibition [3] [%] | % inhibition (HS-PSS [4]) [%] | % inhibition (S462 [5]) [%] | % inhibition (S1507-2 [6]) [%] | % inhibition (YST-1 [7]) [%] | % inhibition (HS-Sch-2 [8]) [%] | % inhibition [9] [%] | drug sensitivity score (ST8814 [10]) | drug sensitivity score (STS26T [11]) | drug sensitivity score [12] | drug sensitivity score (HS-PSS [13]) | drug sensitivity score (S462 [14]) | drug sensitivity score (S1507-2 [15]) | drug sensitivity score (YST-1 [16]) | drug sensitivity score (HS-Sch-2 [17]) | drug sensitivity score [18] | drug sensitivity score (ST8814 [19]) | drug sensitivity score (STS26T [20]) | drug sensitivity score [21] | drug sensitivity score (HS-PSS [22]) | drug sensitivity score (S1507-2 [23]) | drug sensitivity score [24]
1 | CN1CCC(COc2cnc(-c3cccc(Cn4nc(-c5cccc(C#N)c5)ccc4=O)c3)nc2)CC1 (max concentration tested 1000 nM) | 9.67 | 13.9 | 6.94 | 2.35 | 12.1 ± 1.4 | 28.3 ± 1.1 | 2.87 | 0.48 | 8.76 | 0 | 0.286 | 0 | 0 | 2.88 ± 4.1 | 7.535 ± 0.062 | 0 | 0 | 0 | 0 | 0.0133 | 0 | 0 | 0.27 ± 0.38 | 0
2 | Clc1ccc(C(c2ccccc2Cl)C(Cl)Cl)cc1 (stereo unspecified) [Mitotane] (max concentration tested 10000 nM) | 6.22 | 4.66 | 4.91 | -3.05 | 2.7 ± 7.9 | 2.14 ± 4.9 | 0.23 | 1.46 | 1.58 | 0 | 0 | 0 | 0 | 0 | 0 | 0 | 0 | 0 | 0 | 0 | 0 | 0 | 3.77 ± 5.3 | 0
3 | COc1cc(Nc2c(C#N)cnc3cc(OCCCN4CCN(C)CC4)c(OC)cc23)c(Cl)cc1Cl [Bosutinib] (max concentration tested 10000 nM) | 96.5 | 95.4 | 80 | 99.8 | 94.85 ± 0.58 | 96.4 ± 2 | 100 | 100 | 86 | 9.35 | 9.81 | 7.12 | 5.17 | 9.09 ± 1.4 | 9.52 ± 0.072 | 6.63 | 9.19 | 9.52 | 7.01 | 5.46 | 1.14 | 5.37 | 6.25 ± 1.3 | 3.59
4 | CNC(=O)c1ccc(N2C(=S)N(c3ccc(C#N)c(C(F)(F)F)c3)C(=O)C23CCC3)cc1F [RD162] (max concentration tested 10000 nM) | 10 | 4.23 | 11.2 | -0.07 | -0.791 ± 7.8 | 10.7 ± 20 | 7.83 | 9.66 | 8.13 | 0 | 0 | 0.0127 | 0 | 0 | 1.24 ± 1.8 | 0 | 0 | 0 | 0 | 0 | 0 | 0 | 2.37 ± 3.4 | 0
5 | CC(C)(C)c1cnc(CSc2cnc(NC(=O)C3CCNCC3)s2)o1 [SNS-032] (max concentration tested 10000 nM) | 87.2 | 97.5 | 79.4 | 70.5 | 104 ± 0.55 | 80.6 ± 3.5 | 99.9 | 98.6 | 86.5 | 24.5 | 31.5 | 36.9 | 25.9 | 36.8 ± 1.5 | 18.6 ± 1.5 | 29.4 | 27.9 | 38 | 14.4 | 23.2 | 12.8 | 1.68 | 0 | 14.3
6 | CC(=O)c1c(C)c2cnc(Nc3ccc(N4CCNCC4)cn3)nc2n(C2CCCC2)c1=O [Palbociclib] (max concentration tested 10000 nM) | 28 | 36.7 | 31.6 | 41.6 | 72.2 ± 6.1 | 38.8 ± 0.47 | 44.5 | 68.8 | 45.6 | 1.84 | 3.39 | 5.26 | 3.5 | 8.25 ± 0.96 | 3.73 ± 0.74 | 3.89 | 5.62 | 7.37 | 0 | 0 | 0 | 0 | 1.02 ± 1.1 | 0
7 | COc1cc(OC2CCN(C)CC2)ccc1Nc1ncc2c(n1)n(C1CCCC1)c(=O)n2C [AZ 3146] (max concentration tested 10000 nM) | 92.4 | 62.1 | 53.1 | 75.4 | 82.8 ± 4.9 | 87.86 ± 0.87 | 68.7 | 95.6 | 54.7 | 6.15 | 6.58 | 2.64 | 6.35 | 9.91 ± 0.79 | 5.68 ± 1.6 | 6.64 | 8.57 | 2.78 | 5.94 | 4.54 | 0 | 1.72 | 2.07 ± 1.8 | 0.0952
8 | CC(C)(C#N)c1cc(Cn2cncn2)cc(C(C)(C)C#N)c1 [Anastrozole] (max concentration tested 10000 nM) | -7.93 | -1.93 | -2.19 | -11.6 | -13.3 ± 6.7 | -9.3 ± 9.7 | 6.26 | -11.4 | -11 | 0 | 0 | 0 | 0 | 0 | 0 | 0 | 0 | 0 | 0 | 0 | 0 | 0 | 0 | 0
9 | Oc1nc(-c2ccc(C(F)(F)F)cc2)nc2c1CSCC2 [XAV-939] (max concentration tested 10000 nM) | 0.935 | 16.5 | 37 | 23 | 6.97 ± 4 | 33.8 ± 7.3 | 23.1 | 7.73 | 27.6 | 0 | 0.217 | 6.05 | 1.55 | 0 | 2.76 ± 0.27 | 2.41 | 0 | 4.89 | 0 | 0 | 0 | 0 | 1.83 ± 2.6 | 0
10 | CC(C)C(=O)Nc1ccc([N+](=O)[O-])c(C(F)(F)F)c1 [Flutamide] (max concentration tested 10000 nM) | 4.3 | 9.3 | 9.44 | 10.5 | 5.56 ± 0.56 | 4.01 ± 0.74 | -0.22 | -3.98 | 5.2 | 0 | 0 | 0 | 0 | 0 | 0 | 0 | 0 | 0 | 0 | 0 | 0 | 0 | 0 | 0
11 | Oc1ncnc2[nH]ncc12 [Allopurinol] (max concentration tested 10000 nM) | -3.79 | 6.65 | 5.09 | 6.72 | -1.67 ± 0.31 | -4.6 ± 1.9 | 8.22 | 8.43 | 1.63 | 0 | 0 | 0 | 0 | 0 | 0 | 0 | 0 | 0 | 0 | 0 | 0 | 0 | 0 | 0
12 | C[C@]1(O)C[C@@H](c2nc(-c3ccc4ccc(-c5ccccc5)nc4c3)c3c(N)nccn32)C1 [Linsitinib] (max concentration tested 10000 nM) | 11.1 | 13 | 27 | -2.81 | 30.7 ± 0.84 | 24.6 ± 0.99 | 82.4 | 25.6 | 11.7 | 0 | 0.527 | 5.89 | 0 | 5.33 ± 1.5 | 5.34 ± 1.7 | 11.6 | 2.13 | 0 | 0 | 0 | 0 | 0 | 0.228 ± 0.32 | 0
13 | O=C(Nc1ccncc1)C(=O)c1cn(Cc2ccc(Cl)cc2)c2ccccc12 [Indibulin] (max concentration tested 10000 nM) | 74.8 | 93 | 67.6 | 24.1 | 93.04 ± 0.44 | 80.5 ± 4.1 | 66.2 | 83.6 | 78.1 | 14.4 | 20.1 | 11.2 | 2.56 | 16.5 ± 0.54 | 15 ± 3.3 | 10.2 | 10.5 | 10.5 | 12.6 | 21.5 | 5.82 | 0 | 10.8 ± 3.9 | 7.54
14 | Cn1c(=O)c(F)c(Nc2ccc(I)cc2F)c2c(=O)n(C[C@@H](O)CO)cnc21 [TAK-733] (max concentration tested 1000 nM) | 83.7 | 40.6 | 60.4 | 48.9 | 76.5 ± 2.8 | 64.6 ± 1.8 | 14.2 | 63 | 56.7 | 9.73 | 6.24 | 6.66 | 4.36 | 10.3 ± 0.6 | 7.362 ± 0.071 | 0.48 | 5.75 | 6.21 | 5.1 | 0.198 | 0 | 0 | 2.13 ± 3 | 0
